We go through one molecule from article PMC8199036, “Improved Tumor-Targeting with Peptidomimetic Analogs of Minigastrin ^177Lu-PP-F11N” (Cancers, 2021).

Starred links: 1 amine or outer side, 2 acyl side, 3 side chain; linkers in the order of their positions; H or OH if unused. Non-standard residues stand in square brackets, D forms with d. Residues, ends and D or L forms follow the SMILES beside them. *: point of attachment. DOTA = O=C(O)CN1CCN(CC(=O)O)CCN(CC(=O)*)CCN(CC(=O)O)CC1; X1 = C[C@@H](C(=O)[*:2])n1cc([C@@H](CCC(=O)O)N[*:1])nn1; X2 = O=C(Cn1cc([C@H](Cc2ccc(O)cc2)N[*:1])nn1)[*:2]; Nle = CCCC[C@H](N)C(=O)O

By IC50 is commonly meant the concentration that gives 50% inhibition.

The test system of experiment [1] is A431-CCK2R cells. The experiment is described as follows: cell binding and internalization. The class given is cell-based. Conditions: 177Lu-labeled, % of applied radioactivity.
Experiment [2] addresses T1, CCK2R (Homo sapiens, UniProt P32239).
T1 construct: expressed in transfected cells; host or cells: A431-CCK2R cells
T1 sequence (P32239 1-447): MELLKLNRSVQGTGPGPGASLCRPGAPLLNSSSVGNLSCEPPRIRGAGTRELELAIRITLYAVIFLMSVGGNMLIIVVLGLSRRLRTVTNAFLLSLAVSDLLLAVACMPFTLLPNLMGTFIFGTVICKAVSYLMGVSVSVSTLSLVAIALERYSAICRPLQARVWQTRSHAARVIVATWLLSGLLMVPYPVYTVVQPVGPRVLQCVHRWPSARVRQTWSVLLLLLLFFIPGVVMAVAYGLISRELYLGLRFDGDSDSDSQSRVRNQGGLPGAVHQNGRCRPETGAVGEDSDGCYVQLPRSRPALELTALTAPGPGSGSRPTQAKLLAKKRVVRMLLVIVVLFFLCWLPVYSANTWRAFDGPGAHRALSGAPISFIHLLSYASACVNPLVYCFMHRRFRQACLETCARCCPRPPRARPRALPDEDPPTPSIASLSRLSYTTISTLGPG
The experiment can be described thus: competition binding assay (receptor displacement of 177Lu-PP-F11N). The following applies: read-out: IC50 (95% CI); 175Lu-labeled; displacement of 177Lu-PP-F11N (2 nM) on A431-CCK2R cells. The text has this:
Procedures for (radio)metal labeling of the DOTA–minigastrin conjugates with ^177Lu^3+ and ^natLu^3+, cell culturing of A431-CCK2R cells, cell internalization (including blocking experiments with excess minigastrin (H-LE5AYGWMDF-NH2)), competition binding assays (IC50), stability measurements in human blood plasma, and determinations of logDpH 7.4 have been reported previously for the in vitro evaluation of TZMGs and were applied to NMGs without alteration.
Figure 2 (A) Total internalization of ^177Lu-labeled conjugates (2 nM, 5 kBq) in […] cells over 4 h (n = 3–4 in triplicate). […] Data points show mean value ± standard deviation.

Turning to `CCCC[C@H](NC(=O)[C@H](Cc1c[nH]c2ccccc12)NC(=O)Cn1cc([C@H](Cc2ccc(O)cc2)NC(=O)[C@H](C)n2cc([C@@H](CCC(=O)O)NC(=O)[C@@H](CCC(=O)O)NC(=O)[C@@H](CCC(=O)O)NC(=O)[C@@H](CCC(=O)O)NC(=O)[C@@H](CCC(=O)O)NC(=O)[C@@H](CCC(=O)O)NC(=O)CN3CCN(CC(=O)O)CCN(CC(=O)O)CCN(CC(=O)O)CC3)nn2)nn1)C(=O)N[C@@H](CC(=O)O)C(=O)N[C@@H](Cc1ccccc1)C(N)=O` [NMG 3, DOTA-(DGlu)6 -Ψ[Tz]-Ala-Tyr-Ψ[Tz]-Gly-Trp-Nle-Asp-Phe-NH2] ({DOTA}-[dE][dE][dE][dE][dE][X1][X2]W[Nle]DF-NH2), the “Internalization 4 h Total (%)” value in experiment [1] is given as 76.5 ± 2.8%. Further, in experiment [2], the IC50 was found to be 2 nM.
